Holding throughout (assay type): biochemical
The target in assay [1] is T1, Human recombinant Acetyl-CoA Carboxylase 1 (ACC1) (Homo sapiens, UniProt Q13085). Briefly: Assay X: ACC1 inhibition, inorganic phosphate (malachite green). The following applies: Assay X: 37° C., 1.5 h, 5 min pre-incubation. The procedure:
(§1) Human recombinant Acetyl-CoA Carboxylase 1 and Acetyl-CoA Carboxylase 2 (ACC1 and ACC2) were assayed by determining the amount of inorganic phosphate (Pi) generated. Pre-incubation of 15 μL enzyme together with 0.75 μL DMSO+/−compound for 5 min was done before the reaction was initiated by the addition of 10 μL substrate. […] After 1.5 h the reaction was stopped by addition of 74 μL of water followed by extensive mixing, split and transfer of 2×40 μL to a read-plate encompassing 30 μL distilled H2O per well (n=2→n=4). Colour reaction was initiated by addition of 30 μL malachite green reagent per well and allowed 15 min before absorbance reading of the plates at 660 nm. The malachite green reagent was prepared by mixing 16.4 mL ammonium molybdate solution (7.5%), 1.64 mL Tween (11%) with 82 mL Malachite Green/H2SO4-solution (0.7 g Malachite Green to 1000 mL of 10% (v/v) H2SO4).
(§2) All compounds were tested in triplicate at 10 different concentrations. Control compound (0, 50 and 100% effect) was included on each plate. […] Curve fitting was done using the following equation: y=(A+((B−A)/(1+((x/C)̂D)))) where A and B represents the curve bottom (% inhibition) and the total amplitude (% inhibition), respectively, whereas C and D are the apparent IC50 and curve slope, respectively.

For assay [2], the target named is T2, Human recombinant Acetyl-CoA Carboxylase 2 (ACC2) (Homo sapiens, UniProt O00763). Kind of assay: Assay X: ACC2 inhibition, inorganic phosphate (malachite green). As to conditions: Assay X: 37° C., 1.5 h, 5 min pre-incubation. On the procedure: as §1, §2
For assay [3], the target named is T1, Human recombinant Acetyl-CoA Carboxylase 1 (ACC1). Briefly: Assay Y: ACC1 inhibition, inorganic phosphate (Malachite Green). The following applies: Assay Y: room temperature, 3 hr, 15 min preincubation. The procedure, abridged: (§3)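 Enzyme preincubated with compound 15 min before substrate addition; reaction run 3 h, then phosphate detected with Malachite Green at 670 nm after 10 min at room temperature. Triplicate 10-point titrations; IC50 by non-linear four-parameter curve fitting.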

Assay [4] concerns the target T2, Human recombinant Acetyl-CoA Carboxylase 2 (ACC2). Kind of assay: Assay Y: ACC2 inhibition, inorganic phosphate (Malachite Green). As to conditions: Assay Y: room temperature, 3 hr, 15 min preincubation. The procedure, abridged:
as §3

T2 sequence (O00763 whole entry): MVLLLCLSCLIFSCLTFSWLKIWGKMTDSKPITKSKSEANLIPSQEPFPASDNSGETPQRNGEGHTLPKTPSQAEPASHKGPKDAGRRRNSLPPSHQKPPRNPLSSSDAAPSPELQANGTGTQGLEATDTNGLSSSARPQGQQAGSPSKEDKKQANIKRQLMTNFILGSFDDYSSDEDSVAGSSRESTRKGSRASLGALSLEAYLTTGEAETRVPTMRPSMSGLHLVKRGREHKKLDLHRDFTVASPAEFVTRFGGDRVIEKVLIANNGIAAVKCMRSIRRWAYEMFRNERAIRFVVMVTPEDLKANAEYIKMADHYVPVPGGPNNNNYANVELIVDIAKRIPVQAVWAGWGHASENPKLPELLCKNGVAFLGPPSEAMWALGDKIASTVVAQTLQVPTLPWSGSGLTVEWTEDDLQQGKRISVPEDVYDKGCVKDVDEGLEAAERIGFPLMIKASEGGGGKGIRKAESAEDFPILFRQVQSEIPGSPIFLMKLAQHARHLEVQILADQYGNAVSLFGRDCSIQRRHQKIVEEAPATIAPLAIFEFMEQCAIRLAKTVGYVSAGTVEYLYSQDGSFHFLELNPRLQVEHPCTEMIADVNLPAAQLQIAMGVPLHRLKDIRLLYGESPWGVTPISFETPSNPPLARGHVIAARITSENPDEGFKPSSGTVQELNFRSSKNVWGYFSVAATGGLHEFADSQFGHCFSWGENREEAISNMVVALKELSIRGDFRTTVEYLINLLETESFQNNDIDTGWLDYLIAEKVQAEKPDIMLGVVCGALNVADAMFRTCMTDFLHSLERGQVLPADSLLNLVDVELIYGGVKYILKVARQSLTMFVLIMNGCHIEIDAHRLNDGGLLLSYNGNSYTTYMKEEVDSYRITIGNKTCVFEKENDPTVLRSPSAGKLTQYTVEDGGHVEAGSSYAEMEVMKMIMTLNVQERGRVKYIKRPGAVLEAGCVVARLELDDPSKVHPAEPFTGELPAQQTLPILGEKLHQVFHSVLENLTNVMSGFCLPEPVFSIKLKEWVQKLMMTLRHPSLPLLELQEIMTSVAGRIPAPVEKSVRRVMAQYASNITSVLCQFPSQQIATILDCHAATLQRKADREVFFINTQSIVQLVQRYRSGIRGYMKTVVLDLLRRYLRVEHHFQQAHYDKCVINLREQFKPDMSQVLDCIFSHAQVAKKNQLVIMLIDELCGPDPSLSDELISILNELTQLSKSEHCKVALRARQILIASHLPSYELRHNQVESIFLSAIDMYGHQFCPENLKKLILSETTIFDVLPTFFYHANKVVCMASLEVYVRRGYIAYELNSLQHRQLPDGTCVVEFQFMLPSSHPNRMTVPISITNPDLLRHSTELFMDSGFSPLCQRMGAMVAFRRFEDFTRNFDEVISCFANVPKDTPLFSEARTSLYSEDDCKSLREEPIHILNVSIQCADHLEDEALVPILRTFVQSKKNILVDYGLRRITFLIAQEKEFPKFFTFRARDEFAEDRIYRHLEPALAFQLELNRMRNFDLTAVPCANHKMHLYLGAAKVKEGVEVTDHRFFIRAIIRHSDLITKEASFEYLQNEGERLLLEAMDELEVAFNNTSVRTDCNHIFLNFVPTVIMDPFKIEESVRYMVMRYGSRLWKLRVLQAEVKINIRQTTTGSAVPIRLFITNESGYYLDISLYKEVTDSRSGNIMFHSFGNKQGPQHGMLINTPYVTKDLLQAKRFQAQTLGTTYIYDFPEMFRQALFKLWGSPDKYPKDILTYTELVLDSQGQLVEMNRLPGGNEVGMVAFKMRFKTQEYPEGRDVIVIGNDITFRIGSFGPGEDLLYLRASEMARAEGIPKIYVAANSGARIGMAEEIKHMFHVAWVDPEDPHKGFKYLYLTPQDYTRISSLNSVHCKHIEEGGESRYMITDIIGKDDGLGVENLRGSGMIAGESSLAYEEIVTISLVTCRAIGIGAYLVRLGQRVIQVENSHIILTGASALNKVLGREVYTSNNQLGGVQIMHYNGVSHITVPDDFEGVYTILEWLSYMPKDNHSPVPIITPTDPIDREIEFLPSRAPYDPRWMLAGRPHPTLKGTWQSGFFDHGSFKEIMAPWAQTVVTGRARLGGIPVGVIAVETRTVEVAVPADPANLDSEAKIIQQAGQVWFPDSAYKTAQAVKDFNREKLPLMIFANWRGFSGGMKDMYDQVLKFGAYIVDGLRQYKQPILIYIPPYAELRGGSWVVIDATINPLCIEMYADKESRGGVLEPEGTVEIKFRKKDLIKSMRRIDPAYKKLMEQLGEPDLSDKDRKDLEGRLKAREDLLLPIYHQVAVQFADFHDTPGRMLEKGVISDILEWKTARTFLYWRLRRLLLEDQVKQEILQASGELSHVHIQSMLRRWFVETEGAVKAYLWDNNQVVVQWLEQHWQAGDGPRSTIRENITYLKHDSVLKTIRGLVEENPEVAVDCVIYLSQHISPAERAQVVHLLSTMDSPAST

As a reminder, the IC50 is the concentration that inhibits the measured activity by half. `CC(C)(C)OC(=O)NC[C@H]1CC[C@H](CNC(=O)c2cc(-c3ccc(N4CCCC(O)C4)nc3)nc3ccccc23)CC1` (relative stereo) [Example 157, tert-Butyl[(trans-4-{[({2-[6-(3-hydroxypiperidin-1-yl)pyridin-3-yl]-quinolin-4-yl}carbonyl)amino]methyl}cyclohexyl)methyl]carbamate]: the values for the IC50 in assay [1] and in assay [2] were 410 nM and 180 nM, respectively.

Consider `CC(CNc1ccc(-c2cc(C(=O)NC[C@H]3CC[C@H](CNC(=O)OC(C)(C)C)CC3)c3ccccc3n2)cn1)C(=O)O` (relative stereo) [Example 158, 3-{[5-(4-{[(trans-4-{[(tert-Butoxycarbonyl)amino]methyl}cyclohexyl)methyl]-carbamoyl}quinolin-2-yl)pyridin-2-yl]amino}-2-methyl-propanoic acid], for which the IC50 in assay [1] was 3870 nM; in assay [2], 1240 nM. Taken in the same sequence, the figures for `CC(C)(C)OC(=O)NC[C@H]1CC[C@H](CNC(=O)c2cc(-c3ccc(NCC(O)CO)nc3)nc3ccccc23)CC1` (relative stereo) [Example 162, tert-Butyl{[trans-4-({[(2-{6-[(2,3-dihydroxypropyl)amino]pyridin-3-yl}quinolin-4-yl)carbonyl]amino}-methyl)cyclohexyl]-methyl}carbamate] were 880 nM and 370 nM. For `CC(C)(C)OC(=O)NC[C@H]1CC[C@H](CNC(=O)c2cc(-c3ccc(N4CCOC(CO)C4)nc3)nc3ccccc23)CC1` (relative stereo) [Example 171, tert-Butyl{[trans-4-({[(2-{6-[2-(hydroxymethyl)morpholin-4-yl]-pyridin-3-yl}quinolin-4-yl)carbonyl]amino}-methyl)cyclohexyl]-methyl}carbamate], the IC50 in assay [1] worked out at 290 nM; in assay [2], 140 nM. Taken in the same sequence, the figures for `CC(O)C(C)Oc1ccc(-c2cc(C(=O)NC[C@H]3CC[C@H](CNC(=O)OC(C)(C)C)CC3)c3ccccc3n2)cn1` (relative stereo) [Example 176, tert-Butyl[(trans-4-{[({2-[6-(2-hydroxy-1-methylpropoxy)-pyridin-3-yl]-quinolin-4-yl}-carbonyl)amino]-methyl}cyclohexyl)methyl]carbamate] were 3040 nM and 1050 nM.

As for `CN(C)CCNc1ccc(-c2cc(C(=O)NC[C@H]3CC[C@H](CNC(=O)OC(C)(C)C)CC3)c3ccccc3n2)cn1` [Example 146, tert-Butyl({trans-4-[({[2-(6-{[2-(dimethylamino)ethyl]-amino}pyridin-3-yl)quinolin-4-yl]carbonyl}amino)-methyl]cyclohexyl}-methyl)carbamate], the IC50 is 180 nM in assay [3] and 30 nM in assay [4]. For the compound `CC(C)(C)OC(=O)NC[C@H]1CC[C@H](CNC(=O)c2cc(-c3ccc(N4CC[C@@H](O)C4)nc3)nc3ccccc23)CC1` [Example 147, tert-Butyl{[trans-4-({[(2-{6-[(3R)-3-hydroxypyrrolidin-1-yl]pyridin-3-yl}quinolin-4-yl)carbonyl]amino}-methyl)cyclohexyl]-methyl}carbamate], the figures for the IC50 in assay [3] and in assay [4] were 2590 nM and 30 nM, respectively. Taken in the same sequence, the figures for `C[C@@H](CO)Nc1ccc(-c2cc(C(=O)NC[C@H]3CC[C@H](CNC(=O)OC(C)(C)C)CC3)c3ccccc3n2)cn1` [Example 148, tert-Butyl({trans-4-[({[2-(6-{[(1S)-2-hydroxy-1-methylethyl]amino}-pyridin-3-yl)quinolin-4-yl]carbonyl}amino)-methyl]cyclohexyl}-methyl)carbamate] were 460 nM and 70 nM.

With `C[C@H](CO)Nc1ccc(-c2cc(C(=O)NC[C@H]3CC[C@H](CNC(=O)OC(C)(C)C)CC3)c3ccccc3n2)cn1` [Example 149, tert-Butyl({trans-4-[({[2-(6-{[(1R)-2-hydroxy-1-methylethyl]amino}-pyridin-3-yl)quinolin-4-yl]carbonyl}amino)-methyl]cyclohexyl}-methyl)carbamate], the IC50 amounted to 390 nM in assay [3] and 50 nM in assay [4].

Take `CC(C)(C)OC(=O)NC[C@H]1CC[C@H](CNC(=O)c2cc(-c3ccc(OCC4CCOC4)nc3)nc3ccccc23)CC1` (stereo partly drawn) [Example 173, tert-Butyl [(trans-4-{[({2-[6-(tetrahydrofuran-3-ylmethoxy)pyridin-3-yl]quinolin-4-yl}carbonyl)amino]methyl}cyclohexyl)methyl]carbamate]: the IC50 in assay [2] amounted to 410 nM. With `CN1CCN(CCCOc2cc(C(=O)NC[C@H]3CC[C@H](CNC(=O)OC(C)(C)C)CC3)c3ccccc3n2)CC1` [Example 180, tert-Butyl [(trans-4-{[({2-[3-(4-methylpiperazin-1-yl)propoxy]quinolin-4-yl}carbonyl)amino]methyl}cyclohexyl)methyl]carbamate], the figures for the IC50 in assay [3] and in assay [4] were 6910 nM and 1060 nM, respectively. The matching figures for `CN(C)CCCOc1cc(C(=O)NC[C@H]2CC[C@H](CNC(=O)OC(C)(C)C)CC2)c2ccccc2n1` [Example 181, tert-Butyl[(trans-4-{[({2-[3-(dimethylamino)-propoxy]quinolin-4-yl}carbonyl)amino]-methyl}cyclohexyl)-methyl]carbamate]: 12300 nM and 1340 nM. Taken in the same sequence, the figures for `CN1CCN(CCOc2cc(C(=O)NC[C@H]3CC[C@H](CNC(=O)OC(C)(C)C)CC3)c3ccccc3n2)CC1` [Example 182, tert-Butyl[(trans-4-{[({2-[2-(4-methylpiperazin-1-yl)ethoxy]quinolin-4-yl}carbonyl)amino]methyl}cyclohexyl)methyl]carbamate] were 6430 nM and 1760 nM. The matching figures for `CC(=O)N1CCN(CCCOc2cc(C(=O)NC[C@H]3CC[C@H](CNC(=O)OC(C)(C)C)CC3)c3ccccc3n2)CC1` [Example 183, tert-Butyl[(trans-4-{[({2-[3-(4-acetylpiperazin-1-yl)propoxy]quinolin-4-yl}carbonyl)amino]-methyl}cyclohexyl)-methyl]carbamate]: above 20000 nM and 1260 nM. For `CN(C)CCOc1ccc(-c2cc(C(=O)NC[C@H]3CC[C@H](CNC(=O)OC(C)(C)C)CC3)c3ccccc3n2)cn1` [Example 184, tert-Butyl{[trans-4-({[(2-{6-[2-(dimethylamino)ethoxy]pyridin-3-yl}quinolin-4-yl)carbonyl]amino}-methyl)cyclohexyl]-methyl}carbamate], the IC50 in assay [3] turned out to be 210 nM; in assay [4] it was 40 nM. The matching figures for `CC(C)(C)OC(=O)NC[C@H]1CC[C@H](CNC(=O)c2cc(N3CCN(CCO)CC3)nc3ccccc23)CC1` [Example 185, tert-Butyl [(trans-4-{[({2-[4-(2-hydroxyethyl)piperazin-1-yl]quinolin-4-yl}carbonyl)amino]methyl}cyclohexyl)methyl]carbamate]: above 20000 nM and 1120 nM.

Consider `CN(C)CCN1CCN(c2cc(C(=O)NC[C@H]3CC[C@H](CNC(=O)OC(C)(C)C)CC3)c3ccccc3n2)CC1` [Example 186, tert-Butyl{[trans-4-({[(2-{4-[2-(dimethylamino)ethyl]-piperazin-1-yl}quinolin-4-yl)carbonyl]amino}-methyl)cyclohexyl]-methyl}carbamate], for which the IC50 worked out at 2220 nM in assay [3] and 140 nM in assay [4]. Turning to `CC(C)(C)OC(=O)NC[C@H]1CC[C@H](CNC(=O)c2cc(N3CCC(O)CC3)nc3ccccc23)CC1` [Example 187, tert-Butyl({trans-4-[({[2-(4-hydroxypiperidin-1-yl)quinolin-4-yl]carbonyl}amino)-methyl]cyclohexyl}-methyl)carbamate], the IC50 worked out at 8480 nM in assay [3] and 560 nM in assay [4]. The matching figures for `CC(C)(C)OC(=O)NC[C@H]1CC[C@H](CNC(=O)c2cc(N3CCC(CO)CC3)nc3ccccc23)CC1` [Example 188, tert-Butyl[(trans-4-{[({2-[4-(hydroxymethyl)-piperidin-1-yl]quinolin-4-yl}carbonyl)amino]-methyl}cyclohexyl)-methyl]carbamate]: 5640 nM and 270 nM. Taken in the same sequence, the figures for `CC(C)(C)OC(=O)NC[C@H]1CC[C@H](CNC(=O)c2cc(N3CCC(CCO)CC3)nc3ccccc23)CC1` [Example 189, tert-butyl [(trans-4-{[({2-[4-(2-hydroxyethyl)piperidin-1-yl]quinolin-4-yl}carbonyl)amino]methyl}cyclohexyl)methyl]carbamate] were 1960 nM and 70 nM. The matching figures for `CN1CCN(c2ccc(-c3cc(C(=O)N[C@H]4CC[C@H](CNC(=O)OC(C)(C)C)CC4)c4ccccc4n3)cn2)CC1` [Example 204, tert-Butyl ({trans-4-[({2-[6-(4-methylpiperazin-1-yl)pyridin-3-yl]quinolin-4-yl}carbonyl)amino]cyclohexyl}methyl)carbamate]: 3800 nM and 380 nM.

These data come from patent US20090306133A1, “New Acetyl Coenzyme A Carboxylase (ACC) Inhibitors And Uses In Treatments Of Obesity And Diabetes Mellitus - 087” (ASTRAZENECA AB, priority 2007, published 2009).
